In patent US6297245A, “Cisplatin and folic acid administered to treat breast cancer” (Unitech Pharmaceuticals, priority 1999, dated 2001):

Legend:
Type in all cases: cell-based
[1] = test system: human breast cancer cells (MCF-7); experiment: Growth inhibition of human breast cancer cells (MCF-7)
From the text: The results shown the extent of inhibition of cell growth compared to controls expressed in percent inhibition.

[2] = test system: normal human mammary cells (NHMC); experiment: Growth inhibition of normal human mammary cells (NHMC) grown in RPMI-10; conditions: for Percent Growth Inhibition in NHMC Cells Grown in RPMI-10: RPMI-1640 with 10% fetal calf serum
From the text: (§1) The results shown the extent of inhibition of cell growth compared to controls expressed in percent inhibition. The results are shown as follows:
RPMI-10 refers to standard RPMI-1640 medium with 10% fetal calf serum added.

[3] = test system: normal human mammary cells (NHMC); experiment: Growth inhibition of normal human mammary cells (NHMC) grown at low calcium concentration (40 μM); conditions: calcium 40 μM
Procedure: as §1
Table 3 Percent Growth Inhibition in NHMC Cells Grown at Low Calcium Concentration (40 μM).

`N.N.[Cl][Pt][Cl]` [cisplatin, cis-diamminedichloroplatinum] was tested, and the “Percent Growth Inhibition in MCF-7 Cells” value ([1]; 5 μL) was 25%, the “Percent Growth Inhibition in MCF-7 Cells” value ([1]; 10 μL) was 49% and the “Percent Growth Inhibition in MCF-7 Cells” value ([1]; 25 μL) was 92%. For the same compound, the “inhibitions on MCF-7, comparison of cisplatin and #801C” value ([1]; in words) was “essentially the same”, the “Percent Growth Inhibition in NHMC Cells Grown in RPMI-10” value (“Percent Growth Inhibition … in RPMI-10” below) ([2]; 1/100) was 88% and the “Percent Growth Inhibition … in RPMI-10” value ([2]; 1/200) was 46%. For the same compound, the “Percent Growth Inhibition … in RPMI-10” value ([2]; 1/400) was 0%, the “inhibitions on NHMC, comparison of cisplatin and #801C” value ([2]; in words, RPMI-10) was “not significantly different” and the “Percent Growth Inhibition in NHMC Cells Grown at Low Calcium Concentration (40 μM)” value ([3]; 1/100) was 32%. The “Percent Growth Inhibition in NHMC Cells Grown at Low Calcium Concentration (40 μM)” value ([3]; 1/200) was 31% and the “Percent Growth Inhibition in NHMC Cells Grown at Low Calcium Concentration (40 μM)” value ([3]; 1/400) was 27%.
